# What was measured:
# Test in all cases: Enzyme Assay
# [1] = molecular target: PIK3CD (Human) (UniProt O00329)
# [2] = molecular target: PIK3CG (human) (UniProt P48736)
# [3] = molecular target: PIK3CB (Human) (UniProt P42338)
# [4] = molecular target: PIK3CA (human) (UniProt P42336)
# PIK3CA (human), sequence (P42336 whole entry, looked up): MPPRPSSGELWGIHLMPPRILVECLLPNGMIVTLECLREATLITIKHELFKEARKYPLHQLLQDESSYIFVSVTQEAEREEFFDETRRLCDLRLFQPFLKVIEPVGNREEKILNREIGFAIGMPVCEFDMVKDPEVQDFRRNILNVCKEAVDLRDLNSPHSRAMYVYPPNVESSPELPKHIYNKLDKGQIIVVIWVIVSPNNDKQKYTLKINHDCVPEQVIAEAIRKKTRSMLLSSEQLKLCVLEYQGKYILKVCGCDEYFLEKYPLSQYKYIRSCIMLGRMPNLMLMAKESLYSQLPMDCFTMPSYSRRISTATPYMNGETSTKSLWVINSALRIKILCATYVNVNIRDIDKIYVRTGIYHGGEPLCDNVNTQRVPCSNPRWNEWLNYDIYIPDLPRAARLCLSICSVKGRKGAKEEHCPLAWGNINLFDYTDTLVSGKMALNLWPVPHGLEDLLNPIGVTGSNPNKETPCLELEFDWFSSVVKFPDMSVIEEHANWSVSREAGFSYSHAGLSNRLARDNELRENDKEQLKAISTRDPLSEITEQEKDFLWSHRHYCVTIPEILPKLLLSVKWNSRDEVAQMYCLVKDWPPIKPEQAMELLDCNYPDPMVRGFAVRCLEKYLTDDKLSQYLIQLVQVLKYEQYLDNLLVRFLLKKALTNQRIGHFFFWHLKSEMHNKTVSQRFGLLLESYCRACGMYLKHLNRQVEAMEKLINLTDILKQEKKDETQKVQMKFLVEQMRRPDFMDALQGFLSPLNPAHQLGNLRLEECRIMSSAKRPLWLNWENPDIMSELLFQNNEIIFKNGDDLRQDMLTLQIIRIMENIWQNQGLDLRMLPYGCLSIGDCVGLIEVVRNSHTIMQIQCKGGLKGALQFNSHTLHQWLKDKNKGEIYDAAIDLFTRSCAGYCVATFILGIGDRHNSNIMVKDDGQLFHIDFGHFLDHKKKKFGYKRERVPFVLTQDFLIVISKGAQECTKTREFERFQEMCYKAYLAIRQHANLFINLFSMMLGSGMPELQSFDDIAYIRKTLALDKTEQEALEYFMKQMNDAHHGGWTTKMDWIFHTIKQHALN
# PIK3CG (human), sequence (P48736 whole entry, looked up): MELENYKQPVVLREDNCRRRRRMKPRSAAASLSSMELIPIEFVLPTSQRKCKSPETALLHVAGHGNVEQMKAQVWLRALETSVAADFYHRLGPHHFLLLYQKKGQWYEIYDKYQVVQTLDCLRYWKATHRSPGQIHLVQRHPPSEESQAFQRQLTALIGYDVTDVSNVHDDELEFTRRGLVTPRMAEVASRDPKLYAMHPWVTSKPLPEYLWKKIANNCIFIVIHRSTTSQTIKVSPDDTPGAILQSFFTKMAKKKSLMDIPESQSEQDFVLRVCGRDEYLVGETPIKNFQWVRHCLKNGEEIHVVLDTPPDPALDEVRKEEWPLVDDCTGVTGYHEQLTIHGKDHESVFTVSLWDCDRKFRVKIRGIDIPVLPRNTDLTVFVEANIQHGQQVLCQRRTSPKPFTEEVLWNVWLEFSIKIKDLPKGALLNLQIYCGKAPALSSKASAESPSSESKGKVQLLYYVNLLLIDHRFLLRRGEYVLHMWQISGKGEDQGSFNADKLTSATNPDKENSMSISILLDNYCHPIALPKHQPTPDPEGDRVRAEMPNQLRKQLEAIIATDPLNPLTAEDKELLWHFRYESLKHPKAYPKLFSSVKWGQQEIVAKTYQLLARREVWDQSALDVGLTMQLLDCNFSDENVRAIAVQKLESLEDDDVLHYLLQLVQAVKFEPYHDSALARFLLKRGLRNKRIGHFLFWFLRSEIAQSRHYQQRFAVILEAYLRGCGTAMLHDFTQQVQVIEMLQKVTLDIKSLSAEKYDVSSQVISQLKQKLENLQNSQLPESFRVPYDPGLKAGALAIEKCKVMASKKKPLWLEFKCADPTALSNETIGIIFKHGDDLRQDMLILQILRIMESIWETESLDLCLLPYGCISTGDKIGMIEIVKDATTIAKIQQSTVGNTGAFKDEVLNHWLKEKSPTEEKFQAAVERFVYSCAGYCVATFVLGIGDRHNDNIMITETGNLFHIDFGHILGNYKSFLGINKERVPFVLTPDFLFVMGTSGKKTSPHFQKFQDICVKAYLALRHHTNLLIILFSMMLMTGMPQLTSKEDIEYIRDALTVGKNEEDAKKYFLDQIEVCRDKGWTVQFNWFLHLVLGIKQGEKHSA
# PIK3CB (Human), sequence (P42338 whole entry, looked up): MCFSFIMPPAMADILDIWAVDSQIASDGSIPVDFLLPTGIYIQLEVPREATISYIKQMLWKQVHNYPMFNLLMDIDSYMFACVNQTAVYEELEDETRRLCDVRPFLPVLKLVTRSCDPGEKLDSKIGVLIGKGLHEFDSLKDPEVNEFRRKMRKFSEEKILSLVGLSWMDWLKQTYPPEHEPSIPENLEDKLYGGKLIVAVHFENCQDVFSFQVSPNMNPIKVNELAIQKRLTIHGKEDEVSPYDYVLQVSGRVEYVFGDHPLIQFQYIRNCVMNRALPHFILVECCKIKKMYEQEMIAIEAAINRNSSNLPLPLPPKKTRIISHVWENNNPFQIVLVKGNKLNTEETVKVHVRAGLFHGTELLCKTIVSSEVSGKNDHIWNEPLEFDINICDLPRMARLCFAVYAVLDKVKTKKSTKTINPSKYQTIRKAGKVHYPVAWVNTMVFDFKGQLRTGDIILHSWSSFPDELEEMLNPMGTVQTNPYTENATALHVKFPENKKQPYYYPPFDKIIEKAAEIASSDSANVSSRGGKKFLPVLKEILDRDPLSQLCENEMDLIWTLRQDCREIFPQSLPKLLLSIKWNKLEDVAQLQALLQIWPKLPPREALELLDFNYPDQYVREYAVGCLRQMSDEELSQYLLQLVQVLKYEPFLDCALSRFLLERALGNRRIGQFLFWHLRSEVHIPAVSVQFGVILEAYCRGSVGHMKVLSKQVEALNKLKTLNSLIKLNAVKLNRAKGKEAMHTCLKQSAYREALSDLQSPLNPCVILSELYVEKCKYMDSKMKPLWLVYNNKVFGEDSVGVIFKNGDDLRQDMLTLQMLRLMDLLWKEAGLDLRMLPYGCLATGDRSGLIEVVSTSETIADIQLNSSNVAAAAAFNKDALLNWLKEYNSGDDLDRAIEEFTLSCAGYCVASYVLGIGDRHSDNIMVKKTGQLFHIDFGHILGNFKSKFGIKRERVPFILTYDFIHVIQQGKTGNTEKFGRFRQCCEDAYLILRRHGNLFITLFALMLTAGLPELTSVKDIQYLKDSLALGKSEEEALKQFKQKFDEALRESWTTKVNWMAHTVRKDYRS
# PIK3CD (Human), sequence (O00329 whole entry, looked up): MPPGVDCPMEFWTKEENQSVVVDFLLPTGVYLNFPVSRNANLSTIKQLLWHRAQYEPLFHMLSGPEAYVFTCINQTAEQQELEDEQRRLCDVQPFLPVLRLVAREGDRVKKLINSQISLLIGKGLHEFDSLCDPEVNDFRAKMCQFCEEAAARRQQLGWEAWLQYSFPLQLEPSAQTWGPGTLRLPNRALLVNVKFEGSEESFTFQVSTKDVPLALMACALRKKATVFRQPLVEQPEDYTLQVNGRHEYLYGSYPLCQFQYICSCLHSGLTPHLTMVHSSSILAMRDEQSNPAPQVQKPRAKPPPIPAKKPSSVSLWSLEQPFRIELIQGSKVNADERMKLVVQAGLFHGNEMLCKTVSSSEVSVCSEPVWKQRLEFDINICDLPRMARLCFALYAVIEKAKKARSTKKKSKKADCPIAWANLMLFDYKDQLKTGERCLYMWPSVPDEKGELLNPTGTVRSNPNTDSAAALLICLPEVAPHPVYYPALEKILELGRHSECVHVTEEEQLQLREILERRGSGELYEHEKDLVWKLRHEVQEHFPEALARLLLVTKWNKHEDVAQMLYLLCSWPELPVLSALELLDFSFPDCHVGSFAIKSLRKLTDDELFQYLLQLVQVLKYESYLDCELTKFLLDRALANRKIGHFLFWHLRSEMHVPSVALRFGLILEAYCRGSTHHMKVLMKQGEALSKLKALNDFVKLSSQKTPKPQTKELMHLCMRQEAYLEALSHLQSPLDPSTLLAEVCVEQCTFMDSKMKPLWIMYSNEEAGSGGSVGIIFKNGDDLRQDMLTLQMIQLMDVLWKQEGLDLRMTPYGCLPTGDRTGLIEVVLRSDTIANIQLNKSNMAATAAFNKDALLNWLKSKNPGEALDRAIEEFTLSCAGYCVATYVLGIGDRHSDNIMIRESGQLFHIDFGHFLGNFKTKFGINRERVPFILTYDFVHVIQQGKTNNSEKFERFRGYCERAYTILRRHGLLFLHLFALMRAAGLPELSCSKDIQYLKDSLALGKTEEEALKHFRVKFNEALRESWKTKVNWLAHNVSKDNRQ
Structure (SMILES),IC50 [1] [nM],IC50 [2] [nM],IC50 [3] [nM],IC50 [4] [nM]
CC(C)OCCN1c2nc(N3CCOCC3)cc(=O)n2CC[C@H]1C(F)(F)F,211,1750,233,
O=c1cc(N2CCOCC2)nc2n1CC[C@@H](C(F)(F)F)N2Cc1ccccc1,53,1600,99,50
O=c1cc(N2CCOCC2)nc2n1CC[C@@H](C(F)(F)F)N2CCc1ccccc1,14,107,36,17
C[C@H]1COCCN1c1cc(=O)n2c(n1)N(Cc1ccc(Cl)s1)[C@H](C(F)(F)F)CC2,364,1820,643,1010
CC(C)OCCN1c2nc(N3CCOCC3)cc(=O)n2CC[C@@]1(C)C(F)(F)F,27,628,34,88
O=c1cc(N2CCOCC2)nc2n1CC[C@@H](C(F)(F)F)N2c1cc(F)cc(F)c1,270,3510,340,
O=c1cc(N2CCOCC2)nc2n1CC[C@@H](C(F)(F)F)N2Cc1ccc(Cl)s1,169,7170,218,502
C[C@@H]1COCCN1c1cc(=O)n2c(n1)N(Cc1ccc(Cl)s1)[C@H](C(F)(F)F)CC2,1300,,,2900
O=c1cc(N2CC3CCC(C2)O3)nc2n1CC[C@@H](C(F)(F)F)N2Cc1ccc(Cl)s1,3790,,,3690

# The remaining lines, values ahead:
IC50 [1] [nM],IC50 [2] [nM],IC50 [3] [nM],IC50 [4] [nM],Structure (SMILES)
,15,16,,O=c1cc(N2CCOCC2)nc2n1CC[C@@H](C(F)(F)F)N2C[C@@H](O)c1ccccc1
4130,> 10000,> 10000,7430,CC(C)OCCN1c2nc(N3CCOCC3)cc(=O)n2CCC1(C)C
606,2930,3500,931,O=c1cc(N2CCOCC2)nc2n1CCC1(CC1)N2C[C@@H](O)c1ccccc1
1170,7350,4590,1920,CC1(C)CCn2c(nc(N3CCOCC3)cc2=O)N1C[C@@H](O)c1ccccc1
61,1880,93,,O=c1cc(N2CCOCC2)nc2n1CC[C@@H](C(F)(F)F)N2c1ccccc1
,> 10000,998,,O=c1cc(N2CCOCC2)nc2n1CC[C@@H](C(F)(F)F)N2C[C@H](O)c1ccccc1

# Reference: the Kinase Knowledgebase extract (Sharma et al. 2016)
